Measured values from US20070004803A1, “Compounds and methods for use in treating neoplasia and cancer based upon inhibitors of isoprenylcysteine methyltransferase” (Purdue Research Foundation, priority 2003, published 2007).

Tests used:
[1] = target: T1, Saccharomyces cerevisiae Icmt (Saccharomyces cerevisiae, UniProt P32584); experiment: In vitro vapor diffusion methyltransferase assay, AFC analogues as substrates; format: biochemical; details: Relative velocity (compared to AFC) at 125 μM; substrate ability
T1 construct: A 734 bp EagI-SacII fragment, which contained the gene STE14, was amplified from pSM187; made in house; host or cells: Saccharomyces cerevisiae strain CH2704 (plasmid pCHH10m3N-STE14 in the Ste14p-lacking strain SM1188); membrane fraction
T1 sequence (P32584 1-239): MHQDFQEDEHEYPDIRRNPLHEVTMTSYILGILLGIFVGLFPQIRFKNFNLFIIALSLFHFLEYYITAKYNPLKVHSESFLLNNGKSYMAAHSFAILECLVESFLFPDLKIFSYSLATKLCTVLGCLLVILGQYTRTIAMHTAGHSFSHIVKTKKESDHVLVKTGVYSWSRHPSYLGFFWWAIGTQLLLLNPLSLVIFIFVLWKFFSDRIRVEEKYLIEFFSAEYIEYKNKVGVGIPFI
Description: Previous studies in this laboratory have focused on the isoprenoid substrate specificity of FTase. […] These isoprenoid moieties were chosen in part because the corresponding FPP analogues are alternative substrates for FTase, and can thus be readily incorporated into peptides and proteins. The assays were performed using overexpressed, reconstituted recombinant Saccharomyces cerevisiae Icmt.
(§1) Isolation of Membrane Fraction from Yeast Cells—Mid-log phase yeast cells (2.0-3.0 OD600/mL), grown in SC-URA, media, were harvested by centrifugation at 3500×g for 10 minutes at 4° C., washed with 10 mM NaN3, and resuspended in lysis buffer (0.3 M sorbitol, 10 mM Tris-HCl pH 7.5, 0.1 M NaCl, 5 mM MgCl2, 1% aprotinin, 10 μg/mL leupeptin, 10 μg/in L pepstatin A, 10 μg/mL chymostatin, 10 μg/mL bestatin, 1 mM dithiothreitol, and 2 mM AEBSF) to a final concentration of 800 OD600/mL. After a 15 min incubation on ice, the cells were frozen and thawed twice in liquid N2. The cells were then lysed by passing the mixture twice through a French press. The resultant mixture was centrifuged at 500×g to remove whole cells and other particulate. The supernatant was then treated with 50 U/mL micrococcal nuclease followed by centrifugation at 150,000×g in a Beckman L5 50B centrifuge (45 Ti rotor) for 90 minutes at 4° C., to pellet the membrane fraction. The pellet was resuspended in lysis buffer containing 10% glycerol, aliquoted, and stored at −80° C. Membrane protein concentration was determined using Coomassie Plus Protein Assay Reagent (Pierce Biotechnology) according to the manufacturers instructions, and compared to a BSA standard curve prepared by the same procedure. Protein samples were analyzed by immunoblot analysis and in vitro vapor diffusion methyltransferase assay as described elsewhere.
(§2) In vitro vapor diffusion methyltransferase assay—Methyltrasferase assays were performed in a total volume of 60 μL and a final Tris-HCl concentration of 100 mM, pH 7.5. All reactions contained 20 μM S-adenosyl-[^14C-methyl]-methionine (SAM) and 5 μg of membrane protein from the His-Ste14p overexpressing strain CH2704. Substrate curves were generated by varying the amount of compound in each reaction. […] The 60 μL reactions were incubated at 30° C. for 30 minutes. The reaction was stopped with the addition of 50 μL of 1M NaOH/1% SDS. 100 μL of this mixture is then spotted on folded filter paper (5.5 cm×1.5 cm) and lodged in the neck of a scintillation vial containing 10 mL of scintillation fluid. Hydroxide ion forms a tetrahedral intermediate with the newly formed ^14C-methyl ester on the methyl acceptor. This intermediate then eliminates ^14C-methanol, which diffuses into the scintillation fluid below. The filters were pulled out after 2-3 hours, the vials were shaken well and counted in a liquid scintillation analyzer.

[2] = target: T1, Saccharomyces cerevisiae Icmt; experiment: In vitro vapor diffusion methyltransferase assay, inhibition of AFC methylation; format: biochemical; details: for Icmt inhibitory ability (in words): inhibition of AFC methylation; for IC50: inhibition curves in the presence of 33 μM AFC
Description: Previous studies in this laboratory have focused on the isoprenoid substrate specificity of FTase. We have discovered analogues that are effective alternative substrates, and compounds that are potent inhibitors. […] In the initial study, six isoprenoid-modified analogues (2-7, Chart 1, below) of the minimal Icmt substrate AFC 1 were prepared and evaluated as substrates and as inhibitors of the enzyme. These isoprenoid moieties were chosen in part because the corresponding FPP analogues are alternative substrates for FTase, and can thus be readily incorporated into peptides and proteins. The assays were performed using overexpressed, reconstituted recombinant Saccharomyces cerevisiae Icmt.
as §1
as §2, with “reaction. Inhibition curves were generated by varying the amount of compound in each reaction while in the presence of 33 μM N-acetyl-S-farneslylcysteine (AFC).” for “reaction.”

SMILES | Icmt krel [1] | other results
CC(=O)N[C@@H](CSCC=C(C)CCC=C(C)CCC=C(C)C)C(=O)O [Compound 1, N-acetyl-S-farneslylcysteine, reference compound] | 100 | –
CC(=O)N[C@@H](CSC/C=C(\CC=C(C)C)CC/C=C(\C)CCC=C(C)C)C(=O)O [Compound 3, N-Acetyl-S-(3-(3-methylbut-2-enyl)-7,11-dimethyldodeca-2(Z),6(E),10-trien-1-yl)-L-cysteine] | 5.9 | Ki ([2]; AFC(protein)-competitive inhibition of Icmt): 21.3 µM; Icmt inhibitory ability (in words) [2]: low micromolar inhibitor of AFC methylation; mode of action ([2]; varying AFC at constant inhibitor concentration): AFC(protein)—competitive inhibitor of Icmt
CC(=O)N[C@@H](CSC/C=C(/C)CC/C=C(\C)CCC=C(C)C)C(=O)O [Compound 4, N-Acetyl-S-(3,7,11-trimethyldodeca-2(Z),6(E),10-trien-1-yl)-L-cysteine] | 62.0 | –
CC(=O)N[C@@H](CSC/C=C(\C)CC/C=C(/C)CCC=C(C)C)C(=O)O [Compound 5, N-Acetyl-S-(3,7,11-trimethyldodeca-2(E),6(Z),10-trien-1-yl)-L-cysteine] | 19.1 | –
CCCCCCCCCC/C(C)=C/CSC[C@H](NC(C)=O)C(=O)O [Compound 6] | 24.2 | –
C=CCC(=CCSC[C@H](NC(C)=O)C(=O)O)CCC=C(C)CCC=C(C)C [Compound 8, N-Acetyl-S-(3-allyl-7,11-dimethyldodeca-2,6,10-triene-1-yl)-L-cysteine] | 18.6 | –
C=CCC/C(=C\CSC[C@H](NC(C)=O)C(=O)O)CC/C=C(\C)CCC=C(C)C [Compound 9, N-Acetyl-S-(3-(but-3-enyl)-7,11-dimethyldodeca-2Z,6E,10-trien-1-yl)-L-cysteine] | 35.4 | –
CC(=O)N[C@@H](CSC/C=C(\C)CC/C=C(\CC=C(C)C)CCC=C(C)C)C(=O)O [Compound 10, N-Acetyl-S-(7-(3-methylbut-2-enyl)-3,11-dimethyldodeca-2Z,6E,10-trien-1-yl) -L-cysteine] | 35.0 | –
CC(=O)N[C@@H](CSC/C=C(\CC=C(C)C)CC/C=C(\C)CC/C=C(\C)CCC=C(C)C)C(=O)O [Compound 12, N-Acetyl-S-(3-(3-methylbut-2-enyl) 7,11,15-trimethylhexadeca-2Z,6E,10E,14-tetraen-1-yl)-L-cysteine] | 50.0 | IC50 [2]: 130 µM
CC(=O)N[C@@H](CSC/C=C(\C)CC/C=C(\CC=C(C)C)CC/C=C(\C)CCC=C(C)C)C(=O)O [Compound 13, N-Acetyl-S-(7-(3-methylbut-2-enyl) 3,11,15-trimethylhexadeca-2Z,6E,10E,14-tetraen-1-yl)-L-cysteine] | 16.3 | IC50 [2]: 130 µM
CC(=O)N[C@@H](CSC/C=C(\CC=C(C)C)CCc1ccc(-c2ccccc2)cc1)C(=O)O [Compound 14] | 0.70 | Icmt inhibitory ability (in words) [2]: moderately effective inhibitor of Icmt
